Assay results published in US8765669B2, “Glycosylated GLP-1 peptide” (Glytech, Inc., priority 2008, dated 2014).

Molecular target: T1, DPP-IV (dipeptidyl peptidase IV from porcine kidney) (Sus scrofa, UniProt P22411)
T1 construct: dipeptidyl peptidase IV from porcine kidney, product of SIGMA; purchased SIGMA; host or cells: porcine kidney (tissue-derived enzyme)
Test: Test of resistance to dipeptidyl peptidase IV (DPP-IV)
Format: in vitro ADME
Conditions: half-life (t1/2) in DPP-IV solution at 37° C., GLP-1 of Comparative Example 1 defined as standard (=1)
Protocol: Each solution mixture was adjusted with 100 mM sodium phosphate buffer to 100 μl in total and allowed to react at 37° C. A 10 μaliquot of the reaction solution was mixed with 15 μl of 10% trifluoroacetic acid prepared in advance in another Eppendorf tube.

T1 sequence (P22411 whole entry): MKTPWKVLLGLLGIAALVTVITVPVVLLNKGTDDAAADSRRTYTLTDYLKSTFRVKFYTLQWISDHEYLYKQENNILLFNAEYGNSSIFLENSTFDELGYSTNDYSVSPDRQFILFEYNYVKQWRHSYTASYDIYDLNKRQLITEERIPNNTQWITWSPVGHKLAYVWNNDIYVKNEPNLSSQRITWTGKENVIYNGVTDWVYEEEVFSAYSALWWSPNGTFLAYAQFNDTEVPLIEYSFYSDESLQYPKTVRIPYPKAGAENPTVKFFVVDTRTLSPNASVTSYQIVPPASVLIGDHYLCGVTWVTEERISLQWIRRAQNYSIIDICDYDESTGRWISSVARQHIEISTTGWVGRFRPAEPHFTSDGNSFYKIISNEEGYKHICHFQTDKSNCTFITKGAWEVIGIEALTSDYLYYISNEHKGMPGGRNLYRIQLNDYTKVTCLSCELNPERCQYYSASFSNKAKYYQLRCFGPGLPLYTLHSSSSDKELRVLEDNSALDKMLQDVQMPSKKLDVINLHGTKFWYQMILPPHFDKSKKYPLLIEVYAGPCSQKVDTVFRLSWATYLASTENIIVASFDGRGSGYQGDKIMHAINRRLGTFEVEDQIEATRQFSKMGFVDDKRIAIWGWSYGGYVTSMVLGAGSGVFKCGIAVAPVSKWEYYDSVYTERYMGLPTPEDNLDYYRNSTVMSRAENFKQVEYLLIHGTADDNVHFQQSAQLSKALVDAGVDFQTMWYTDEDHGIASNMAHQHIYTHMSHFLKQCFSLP

Compound	Relative Resistance
CC[C@H](C)[C@H](NC(=O)[C@H](Cc1ccccc1)NC(=O)[C@H](CCC(=O)O)NC(=O)[C@H](CCCCN)NC(=O)[C@H](C)NC(=O)[C@H](C)NC(=O)[C@H](CCC(N)=O)NC(=O)CNC(=O)[C@H](CCC(=O)O)NC(=O)[C@H](CC(C)C)NC(=O)[C@H](Cc1ccc(O)cc1)NC(=O)[C@H](CO)NC(=O)[C@H](CO)NC(=O)[C@@H](NC(=O)[C@H](CC(=O)O)NC(=O)[C@H](CO)NC(=O)[C@@H](NC(=O)[C@H](Cc1ccccc1)NC(=O)[C@@H](NC(=O)CNC(=O)[C@H](CCC(=O)O)NC(=O)[C@H](C)NC(=O)[C@@H](N)Cc1c[nH]cn1)[C@@H](C)O)[C@@H](C)O)C(C)C)C(=O)N[C@@H](CSCC(=O)N[C@@H]1O[C@H](CO)[C@@H](O)[C@H](O[C@@H]2O[C@H](C(=O)O)[C@@H](O[C@@H]3O[C@H](CO)[C@@H](O)[C@H](O[C@@H]4O[C@H](C(=O)O)[C@@H](O[C@@H]5O[C@H](CO)[C@@H](O)[C@H](O[C@@H]6O[C@H](C(=O)O)[C@@H](O[C@@H]7O[C@H](CO)[C@@H](O)[C@H](O[C@@H]8O[C@H](C(=O)O)[C@@H](O)[C@H](O)[C@H]8O)[C@H]7NC(C)=O)[C@H](O)[C@H]6O)[C@H]5NC(C)=O)[C@H](O)[C@H]4O)[C@H]3NC(C)=O)[C@H](O)[C@H]2O)[C@H]1NC(C)=O)C(=O)N[C@@H](Cc1c[nH]c2ccccc12)C(=O)N[C@@H](CC(C)C)C(=O)N[C@H](C(=O)N[C@@H](CCCCN)C(=O)NCC(=O)N[C@@H](CCCNC(=N)N)C(=O)NCC(=O)O)C(C)C [Example 7, 30Cys-hyaluronic acid octasaccharide (HA-8) Added GLP-1 Peptide]	3.4
CC[C@H](C)[C@H](NC(=O)[C@H](Cc1ccccc1)NC(=O)[C@H](CCC(=O)O)NC(=O)[C@H](CCCCN)NC(=O)[C@H](C)NC(=O)[C@H](C)NC(=O)[C@H](CCC(N)=O)NC(=O)CNC(=O)[C@H](CCC(=O)O)NC(=O)[C@H](CC(C)C)NC(=O)[C@H](Cc1ccc(O)cc1)NC(=O)[C@H](CO)NC(=O)[C@H](CO)NC(=O)[C@@H](NC(=O)[C@H](CC(=O)O)NC(=O)[C@H](CO)NC(=O)[C@@H](NC(=O)[C@H](Cc1ccccc1)NC(=O)[C@@H](NC(=O)CNC(=O)[C@H](CCC(=O)O)NC(=O)[C@H](C)NC(=O)[C@@H](N)Cc1c[nH]cn1)[C@@H](C)O)[C@@H](C)O)C(C)C)C(=O)N[C@@H](C)C(=O)N[C@@H](Cc1c[nH]c2ccccc12)C(=O)N[C@@H](CC(C)C)C(=O)N[C@H](C(=O)N[C@@H](CCCCN)C(=O)NCC(=O)N[C@@H](CSCC(=O)N[C@@H]1O[C@H](CO)[C@@H](O)[C@H](O[C@@H]2O[C@H](C(=O)O)[C@@H](O[C@@H]3O[C@H](CO)[C@@H](O)[C@H](O[C@@H]4O[C@H](C(=O)O)[C@@H](O)[C@H](O)[C@H]4O)[C@H]3NC(C)=O)[C@H](O)[C@H]2O)[C@H]1NC(C)=O)C(=O)NCC(=O)O)C(C)C [Example 8, 36Cys-hyaluronic acid tetrasaccharide (HA-4) Added GLP-1 Peptide]	2.2
CC[C@H](C)[C@H](NC(=O)[C@H](Cc1ccccc1)NC(=O)[C@H](CCC(=O)O)NC(=O)[C@H](CCCCN)NC(=O)[C@H](C)NC(=O)[C@H](C)NC(=O)[C@H](CCC(N)=O)NC(=O)CNC(=O)[C@H](CCC(=O)O)NC(=O)[C@H](CC(C)C)NC(=O)[C@H](Cc1ccc(O)cc1)NC(=O)[C@H](CO)NC(=O)[C@H](CO)NC(=O)[C@@H](NC(=O)[C@H](CC(=O)O)NC(=O)[C@H](CO)NC(=O)[C@@H](NC(=O)[C@H](Cc1ccccc1)NC(=O)[C@@H](NC(=O)CNC(=O)[C@H](CCC(=O)O)NC(=O)[C@H](C)NC(=O)[C@@H](N)Cc1c[nH]cn1)[C@@H](C)O)[C@@H](C)O)C(C)C)C(=O)N[C@@H](CSCC(=O)N[C@@H]1O[C@H](CO)[C@@H](O)[C@H](O[C@@H]2O[C@H](C(=O)O)[C@@H](O[C@@H]3O[C@H](CO)[C@@H](O)[C@H](O[C@@H]4O[C@H](C(=O)O)[C@@H](O[C@@H]5O[C@H](CO)[C@@H](O)[C@H](O[C@@H]6O[C@H](C(=O)O)[C@@H](O[C@@H]7O[C@H](CO)[C@@H](O)[C@H](O[C@@H]8O[C@H](C(=O)O)[C@@H](O[C@@H]9O[C@H](CO)[C@@H](O)[C@H](O[C@@H]%10O[C@H](C(=O)O)[C@@H](O[C@@H]%11O[C@H](CO)[C@@H](O)[C@H](O[C@@H]%12O[C@H](C(=O)O)[C@@H](O[C@@H]%13O[C@H](CO)[C@@H](O)[C@H](O[C@@H]%14O[C@H](C(=O)O)[C@@H](O[C@@H]%15O[C@H](CO)[C@@H](O)[C@H](O[C@@H]%16O[C@H](C(=O)O)[C@@H](O)[C@H](O)[C@H]%16O)[C@H]%15NC(C)=O)[C@H](O)[C@H]%14O)[C@H]%13NC(C)=O)[C@H](O)[C@H]%12O)[C@H]%11NC(C)=O)[C@H](O)[C@H]%10O)[C@H]9NC(C)=O)[C@H](O)[C@H]8O)[C@H]7NC(C)=O)[C@H](O)[C@H]6O)[C@H]5NC(C)=O)[C@H](O)[C@H]4O)[C@H]3NC(C)=O)[C@H](O)[C@H]2O)[C@H]1NC(C)=O)C(=O)N[C@@H](Cc1c[nH]c2ccccc12)C(=O)N[C@@H](CC(C)C)C(=O)N[C@H](C(=O)N[C@@H](CCCCN)C(=O)NCC(=O)N[C@@H](CCCNC(=N)N)C(=O)NCC(=O)O)C(C)C [Example 10, 30Cys-hyaluronic acid hexadecasaccharide (HA-16) Added GLP-1 Peptide]	3.9
CC[C@H](C)[C@H](NC(=O)[C@H](Cc1ccccc1)NC(=O)[C@H](CCC(=O)O)NC(=O)[C@H](CCCCN)NC(=O)[C@H](C)NC(=O)[C@H](C)NC(=O)[C@H](CCC(N)=O)NC(=O)CNC(=O)[C@H](CCC(=O)O)NC(=O)[C@H](CC(C)C)NC(=O)[C@H](Cc1ccc(O)cc1)NC(=O)[C@H](CO)NC(=O)[C@H](CO)NC(=O)[C@@H](NC(=O)[C@H](CC(=O)O)NC(=O)[C@H](CO)NC(=O)[C@@H](NC(=O)[C@H](Cc1ccccc1)NC(=O)[C@@H](NC(=O)CNC(=O)[C@H](CCC(=O)O)NC(=O)[C@H](C)NC(=O)[C@@H](N)Cc1c[nH]cn1)[C@@H](C)O)[C@@H](C)O)C(C)C)C(=O)N[C@@H](C)C(=O)N[C@@H](Cc1c[nH]c2ccccc12)C(=O)N[C@@H](CC(C)C)C(=O)N[C@H](C(=O)N[C@@H](CCCCN)C(=O)NCC(=O)N[C@@H](CSCC(=O)N[C@@H]1O[C@H](CO)[C@@H](O)[C@H](O[C@@H]2O[C@H](C(=O)O)[C@@H](O[C@@H]3O[C@H](CO)[C@@H](O)[C@H](O[C@@H]4O[C@H](C(=O)O)[C@@H](O[C@@H]5O[C@H](CO)[C@@H](O)[C@H](O[C@@H]6O[C@H](C(=O)O)[C@@H](O[C@@H]7O[C@H](CO)[C@@H](O)[C@H](O[C@@H]8O[C@H](C(=O)O)[C@@H](O[C@@H]9O[C@H](CO)[C@@H](O)[C@H](O[C@@H]%10O[C@H](C(=O)O)[C@@H](O[C@@H]%11O[C@H](CO)[C@@H](O)[C@H](O[C@@H]%12O[C@H](C(=O)O)[C@@H](O[C@@H]%13O[C@H](CO)[C@@H](O)[C@H](O[C@@H]%14O[C@H](C(=O)O)[C@@H](O[C@@H]%15O[C@H](CO)[C@@H](O)[C@H](O[C@@H]%16O[C@H](C(=O)O)[C@@H](O)[C@H](O)[C@H]%16O)[C@H]%15NC(C)=O)[C@H](O)[C@H]%14O)[C@H]%13NC(C)=O)[C@H](O)[C@H]%12O)[C@H]%11NC(C)=O)[C@H](O)[C@H]%10O)[C@H]9NC(C)=O)[C@H](O)[C@H]8O)[C@H]7NC(C)=O)[C@H](O)[C@H]6O)[C@H]5NC(C)=O)[C@H](O)[C@H]4O)[C@H]3NC(C)=O)[C@H](O)[C@H]2O)[C@H]1NC(C)=O)C(=O)NCC(=O)O)C(C)C [Example 11, 36Cys-hyaluronic acid hexadecasaccharide (HA-16) Added GLP-1 Peptide]	3
